# PubChem BioAssay AID328 (DTP/NCI, 2004)
# Values joined by “and” are separate entries in the source; they are usually repeats but may differ in a detail not shown here. Equal entries are not always repeated. Inconclusive results and toxic doses are left out.
# System: BDF1 mice, P388 leukemia ip, median survival T/C
# Assay: NCI In Vivo Anticancer Drug Screen. Data for tumor model P388 Leukemia (intraperitoneal) in B6D2F1 (BDF1) mice
# Conditions: endpoint: median survival time, higher = longer survival
# Summary of the method: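 Steps: implant the tumour, treat one group with compound and another with vehicle, record survival, then divide treated by control.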
# [1] = dose: 50.0 mg/kg/injection, schedule: Q01DX009 (ip), vehicle: saline with Tween-80
# [2] = dose: 100.0 mg/kg/injection, schedule: Q01DX009 (ip), vehicle: saline with Tween-80
# [3] = dose: 200.0 mg/kg/injection, schedule: Q01DX009 (ip), vehicle: saline with Tween-80
# [4] = dose: 25.0 mg/kg/injection, schedule: Q01DX009 (ip), vehicle: Klucel (hydroxypropylcellulose) (HPC)
# [5] = dose: 50.0 mg/kg/injection, schedule: Q01DX009 (ip), vehicle: Klucel (hydroxypropylcellulose) (HPC)
# [6] = dose: 100.0 mg/kg/injection, schedule: Q01DX009 (ip), vehicle: Klucel (hydroxypropylcellulose) (HPC)
# [7] = dose: 33.0 mg/kg/injection, schedule: Q04DX003 (ip), vehicle: saline with Tween-80
# [8] = dose: 50.0 mg/kg/injection, schedule: Q04DX003 (ip), vehicle: saline with Tween-80
structure (smiles),measurement,setting,value
CCOC(=O)/C=C(\C)C(=O)c1ccc(OC)c(OC)c1OCc1ccccc1,T/C,"dose: 12.5 mg/kg/injection, schedule: Q01DX009 (ip), vehicle: saline with Tween-80",100 % of control
same,T/C,"dose: 25.0 mg/kg/injection, schedule: Q01DX009 (ip), vehicle: saline with Tween-80",100 % of control
same,T/C,[1],90 % of control
same,T/C,[2],90 % of control
same,T/C,[3],100 % of control
O=S1(=O)CC(Cl)C(Cl)C1 (stereo unspecified),T/C,"dose: 3.12 mg/kg/injection, schedule: Q01DX009 (ip), vehicle: saline",90 % of control and 95 % of control
same,T/C,"dose: 4.5 mg/kg/injection, schedule: Q04DX003 (ip), vehicle: saline",118 % of control
same,T/C,"dose: 6.25 mg/kg/injection, schedule: Q01DX009 (ip), vehicle: saline",90 % of control
same,T/C,"dose: 9.0 mg/kg/injection, schedule: Q04DX003 (ip), vehicle: saline",104 % of control
same,T/C,"dose: 12.5 mg/kg/injection, schedule: Q01DX009 (ip), vehicle: saline",95 % of control
same,T/C,"dose: 18.0 mg/kg/injection, schedule: Q04DX003 (ip), vehicle: saline",113 % of control
same,T/C,"dose: 26.0 mg/kg/injection, schedule: Q04DX003 (ip), vehicle: saline",91 % of control
CC12NC(=O)NC1(C)NC(=O)N2 (stereo unspecified),T/C,"dose: 100.0 mg/kg/injection, schedule: Q04DX003 (ip), vehicle: saline with Tween-80",100 % of control
same,T/C,"dose: 200.0 mg/kg/injection, schedule: Q04DX003 (ip), vehicle: saline with Tween-80",100 % of control
C[C@]12CCC(=O)C=C1CC[C@H]1[C@@H]3CC[C@@]4(OCC4=O)[C@@]3(C)C[C@H](O)[C@@]12F,T/C,[4],96 % of control
same,T/C,[5],104 % of control
same,T/C,[6],104 % of control
same,T/C,"dose: 100.0 mg/kg/injection, schedule: Q04DX003 (ip), vehicle: Klucel (hydroxypropylcellulose) (HPC)",104 % of control
same,T/C,"dose: 200.0 mg/kg/injection, schedule: Q04DX003 (ip), vehicle: Klucel (hydroxypropylcellulose) (HPC)",112 % of control
same,T/C,"dose: 400.0 mg/kg/injection, schedule: Q04DX003 (ip), vehicle: Klucel (hydroxypropylcellulose) (HPC)",108 % of control
COc1cc(C=Nc2cc(Cl)ccc2-n2ccnc2C)ccc1N(CCCl)CCCl,T/C,"dose: 21.0 mg/kg/injection, schedule: Q04DX003 (ip), vehicle: saline with Tween-80",170 % of control
same,T/C,[7],235 % of control
same,T/C,[8],170 % of control
same,T/C,"dose: 75.0 mg/kg/injection, schedule: Q04DX003 (ip), vehicle: saline with Tween-80",178 % of control
CCCCC[C@H](O)/C=C/[C@@H]1[C@@H](C/C=C\CCCC(=O)O)[C@@H](O)C[C@H]1O,T/C,"dose: 0.25 mg/kg/injection, schedule: Q#A X020 (ip), vehicle: saline",110 % of control
same,T/C,"dose: 0.5 mg/kg/injection, schedule: Q#A X020 (ip), vehicle: saline",101 % of control
same,T/C,"dose: 1.0 mg/kg/injection, schedule: Q#A X020 (ip), vehicle: saline",100 % of control
same,T/C,"dose: 2.5 mg/kg/injection, schedule: Q04DX003 (ip), vehicle: saline with Tween-80",94 % of control
same,T/C,"dose: 5.0 mg/kg/injection, schedule: Q04DX002 (ip), vehicle: saline",97 % of control
same,T/C,"dose: 10.0 mg/kg/injection, schedule: Q04DX003 (ip), vehicle: saline with Tween-80",105 % of control
same,T/C,"dose: 20.0 mg/kg/injection, schedule: Q04DX002 (ip), vehicle: saline",105 % of control
same,T/C,"dose: 40.0 mg/kg/injection, schedule: Q04DX002 (ip), vehicle: saline",105 % of control
same,T/C,"dose: 80.0 mg/kg/injection, schedule: Q04DX002 (ip), vehicle: saline",97 % of control
O=C1NC(c2ccccc2)(c2ccccc2)C(=O)N1CCN(CCCl)CCCl,T/C,"dose: 6.1 mg/kg/injection, schedule: Q04DX003 (ip), vehicle: saline with Tween-80",100 % of control
same,T/C,"dose: 14.0 mg/kg/injection, schedule: Q04DX003 (ip), vehicle: saline",150 % of control
same,T/C,"dose: 21.0 mg/kg/injection, schedule: Q04DX003 (ip), vehicle: saline",190 % of control
same,T/C,[7],154 % of control and 168 % of control
same,T/C,[8],181 % of control and 200 % of control
Cc1ccc(C(=O)[O][Hg][CH2]C2COC([CH2][Hg][O]C(=O)c3ccc(C)cc3)CO2)cc1 (stereo unspecified),T/C,"dose: 2.25 mg/kg/injection, schedule: Q01DX009 (ip), vehicle: saline with Tween-80",90 % of control
same,T/C,"dose: 6.25 mg/kg/injection, schedule: Q01DX009 (ip), vehicle: saline sonified",110 % of control
same,T/C,"dose: 6.25 mg/kg/injection, schedule: Q04DX003 (ip), vehicle: saline with Tween-80",107 % of control
same,T/C,"dose: 12.5 mg/kg/injection, schedule: Q04DX003 (ip), vehicle: saline with Tween-80",107 % of control
same,T/C,[4],109 % of control
same,T/C,"dose: 25.0 mg/kg/injection, schedule: Q01DX009 (ip), vehicle: saline sonified",150 % of control
same,T/C,"dose: 25.0 mg/kg/injection, schedule: Q04DX003 (ip), vehicle: saline with Tween-80",103 % of control
same,T/C,[5],109 % of control
same,T/C,[6],86 % of control
same,T/C,"dose: 225.0 mg/kg/injection, schedule: Q04DX003 (ip), vehicle: Klucel (hydroxypropylcellulose) (HPC)",109 % of control
Cc1ccc(S(=O)(=O)NC(=O)Oc2nc3cc(Cl)ccc3o2)cc1,T/C,[1],99 % of control
same,T/C,[2],114 % of control
same,T/C,[3],96 % of control
